Measured values: patent publication US20230159667A1, “BIOCOMPATIBLE CARRIER FORMULATION FOR APPLICATIONS IN PLANT PROTECTION AND PLANT GROWTH STIMULATION OR IN COSMETICS AND PERSONAL CARE ON THE BASIS OF MODIFIED STARCH” (Amynova Polymers GmbH, priority 2020, published 2023)
Like-named read-outs stand apart in the source and are kept apart here.

Assay: Active ingredient remaining on foliage after rainfall
[1] = sprayed with the invention as adjuvant vs fungicide alone, 27 mm rainfall 2009, 24 mm 2010

Row | Molecule | rain fastness on leaves (residues remaining on foliage after rainfall) | rain fastness on leaves (residues remaining on foliage after rainfall) [1]
1 | COc1ccc(C(=CC(=O)N2CCOCC2)c2ccc(Cl)cc2)cc1OC [dimethomorph] | Improved rain fastness | –
2 | O=[N+]([O-])c1cc(C(F)(F)F)c(Cl)c([N+](=O)[O-])c1Nc1ncc(C(F)(F)F)cc1Cl [fluazinam] | – | Improved rain fastness
3 | Mancozeb | – | Improved rain fastness
